Measured values taken from patent US20040235049A1, “Device for presentation of polypeptides able to be used as a chip for miniaturised detection of molecules” (priority 2001, published 2004).

Tested on: antibodies of positive and negative sera (HCV)
Assay: Ketone-functionalised (transaminated) peptide on semicarbazide slides tested with sera
Format: binding, human
Details: 16 spots, peptide 10^−4 M
Method: The slides are then incubated in the presence of 100 μl of serum from patients diluted to 1/50th in the dilution buffer (PBS+2.5% of powdered semi-skimmed milk+0.5% of Tween 20) under a glass cover slip (24×60 mm). […] 4 successive washes are then effected for 3 minutes in PBS solution with 0.05% added Tween 20.
The reaction of the antibodies of patients with the polypeptides attached to the slide is detected by the binding onto these of fluorescent anti-human IgG antibodies. 100 μl of solution of anti-human IgG-A-M antibodies labelled with rhodamine (TRITC) (Jackson ImmunoResearch Laboratories, Baltimore, US) diluted to 1/100th in the dilution buffer (PBS+2.5% of powdered semi-skimmed milk+0.5% of Tween 20) are then deposited onto each slide. Each slide is then covered with a cover slip (24×60 mm) and left to incubate for 1 hours at 37° C. under a moist atmosphere. A series of 4 successive washes in PBS solution with 0.05% of added Tween 20 is carried out.
The fluorescence emitted is then detected using a slide scanner (L35/PMT 50, Affymetrix 418 Chip Scanner, MWG).
The 2 peptides HCVpc21-Met (non-transaminated) and pc21-TA (transaminated) and also the peptide HCVpc21-2 (described in Example 3) were attached to semicarbazide slides at the rate of 16 spots of each peptide per slide.
Each peptide was deposited at the concentration of 10^−4 M.
The slides were incubated in the presence of 4 positive sera and 2 negative sera.

H-MTNRRPQDVKFPGGGQIVGGVYLLPRRGPRLG-NH2 [pc21-Met, non-transaminated control peptide]
Mean Fluorescence (Serum 41, ELISA o.d. 1.4): 960 | Mean Fluorescence (Serum 43, ELISA o.d. 1.7): 2810 | Mean Fluorescence (Serum 45, ELISA o.d. 0.7): 356 | Mean Fluorescence (Serum 48, negative): 59 | Mean Fluorescence (Serum 53, ELISA o.d. 2.7): 7741 | Mean Fluorescence (Serum 55, negative): 55
